Test results taken from US8716437B2 (priority 2007, dated 2014).

Experiments:
guinea pig ileum [1] = assay: Spontaneous motility (twitches) of guinea pig ileum strips; conditions: reference toxins 10 nM; mokatoxin-1 1-100 nM
KcsA-Kv1.3 = assay: Phage panning on purified immobilized KcsA-Kv1.3 (KcsA-1.3); format: binding; conditions: mixture of five ligands
Kv1.3 = Kv1.3 (Homo sapiens, UniProt P22001); assay: Phage panning on live cells (HEK, COS) expressing Kv1.3 channels; format: binding; parameters: expressed in transfected cells; host or cells: HEK (HEK293) and COS cells; conditions: for enrichment of KTX, Kv1.3 transfected vs. vector cells: 5×10^11 phagemids; for OUTPUT KTX (%): mixture of KTX and nonspecific phages, one round of panning
Description: In another example, receptors may be expressed in cells. For example, cells may be stably or transiently transfected with one or more receptors can be utilized as expressed in native tissues (Clackson and Lowman, Phage display. Oxford University Press, 2004; Barbas et al., Phage display. A laboratory manual. Cold Spring Harbor Laboratory Press, 2001; Sambrook et al., Molecular Cloning: A Laboratory Manual. Vols 1-3. Cold Spring Harbor Laboratory Press, 1989). In one example, HEK (mammalian human embryonic kidney) and COS cells expressing wild-type Kv1.3 or Kv1.3-PDZ domain chimera were employed, the latter target allowing a “double” panning (e.g., as a control or to enhance binding affinity) using phages expressing kaliotoxin-1 and/or PDZ-binder domain.
Panning may be performed by the binding of ligands to the receptors, followed by washes and ligand recovery. In one example, panning is performed according to standard methods of phage display (Clackson and Lowman, Phage display. Oxford University Press, 2004; Barbas et al., Phage display. A laboratory manual. Cold Spring Harbor Laboratory Press, 2001). Panning may be repeated until the desired enrichment is achieved. In addition, libraries can be pre-depleted on surfaces or cells that contain no receptors or on a receptor where the putative ligand receptor domain may be directly or indirectly altered. Additionally, any and all conditions of panning may be varied, altered or changed to achieve optimal results, such as the isolation of a specific ligand. Panning variations include, but are not limited to, the presence of competing ligand(s), presence of excess target(s), length and temperature of binding, pre-absorption of the ligand library on one or more different receptor(s) or cells or surfaces, composition of binding solution (e.g., ionic strength), stringency of washing, and recovery procedures. Phages recovered from panning may be processed for further rounds of panning, functional analysis, and/or sequencing/genotyping to deduce the resulting ligands' amino acid sequence or biological properties (Clackson and Lowman, Phage display. Oxford University Press, 2004; Barbas et al., Phage display. A laboratory manual. Cold Spring Harbor Laboratory Press, 2001).
5×10^11 phagemids were added to the cell cultures in “B.”
A library of KTX-like ligands, with a calculated diversity of greater than 11,000, was created de novo. The library comprised approximately 8% KTX-like ligands and 92% non-KTX-like ligands. The library of ligands was screened on Kv1.3 receptors expressed in HEK and COS cells.
Transfection efficiency was monitored with cotransfection of gene encoding for the green fluorescence protein (GFP) and observing the fluorescence after 1-2 days following transfection.
KTX and mokatoxin-1 are Kv1.3 specific scorpion toxins. […] Following incubation of the cells with the phages, cells were subjected to wash to remove the unbound/weakly bound phages. The remaining bound phages were eluted from the cells and transformed into XL1 E. coli, and plated onto LB plates with antibiotic selecting for the phagemids.

Kv1.2 = molecular target: T1, Kv1.2 (Rattus norvegicus, UniProt P63142); assay: Two electrode voltage clamp, Xenopus oocytes, Kv1.2; format: cell-based
T1 construct: expressed in transfected cells; host or cells: Xenopus laevis oocytes (cRNA injection)
Protocol: (§1) To examine the effect of mokatoxin-1 on activity of potassium ion channels, cDNA encoding Rattus Kv1.1 (NCBI accession number NM_173095), Rattus Kv1.2 (NM_012970), Homo Kv1.3 (NM_002232), or Mus BK (NM_010610) were subcloned into oocyte expression vectors based on PCR3.1 and pGEM. cRNA synthesis was performed with T7 polymerase and the mMessageMachine Kit (Ambion, Austin, Tex.) according to manufacturers instructions. cRNA concentrations were determined spectroscopically. For two electrode voltage clamp recordings oocytes were extracted from Xenopus laevis and defoliculated with Collagenase Type 2 (Worthington, Lakewood, N.J.). Oocytes were maintained in ND91 solution containing 2 mM KCl, 91 mM NaCl, 1 mM MgCl2, 1.8 mM CaCl2, and 5 mM HEPES, pH 7.5, supplemented with 1% Penicillin/Streptomycin (Cellgro, Hemdon, Va.) and 0.1% Gentamycin sulfate (Gibco, Grand Island, N.Y.)) at 16° C. Stage V and VI oocytes were injected with 8 pg to 4 ng cRNA, and currents recorded 1 to 4 days later.
(§2) For dose-response measurements of toxin block of Kv1.1, Kv1,2, or Kv1.3 peak currents were recorded during a 500 ms step to 0 mV from a holding voltage of −100 mV, followed by a 200 ms step to −135 mV every 30 s. To determine the kinetics of toxin block oocytes were held at −100 mV and stepped to the test voltage of 0 mV for 100 ms followed by a 200 ms duration step to −135 mV every 2 s. BK currents were recorded during a 50 ms step to +60 mV from a holding voltage of −80 mV, followed by a 40 ms step to −100 mV every 3 s. The perfusion solution contained 2 mM KCl, 96 mM NaCl, 1 mM MgCl2, 1.8 mM CaCl2, 5 mM HEPES, pH 7.5 and 0.1% fatty acid ultra-free BSA fraction V (Roche Diagnostics Corporation, Indianapolis, Ind.). Data acquisition and processing was performed with an oocyte clamp OC-725B (Warner Instruments Corporation, Hamden, Conn.), pCLAMP (Axon, Sunnyvale, Calif.), IGOR Pro (WaveMetrics, Lake Oswego, Oreg.), and Origin6.1 (OriginLab Corporation, Northampton, Mass.) softwares. The equilibrium dissociation rates (KD) for block of Kv1.1, Kv1.2, and Kv1.3 by mokatoxin-1 were determined by fitting the dose-response data and kon and koff were calculated as described by Goldstein and Miller, 1993 (Biophys J. 1993 65 (4):1613-1619).

Kv1.1 = molecular target: T2, Kv1.1 (Rattus norvegicus, UniProt P10499); assay: Two electrode voltage clamp, Xenopus oocytes, Kv1.1; format: cell-based
T2 construct: expressed in transfected cells; host or cells: Xenopus laevis oocytes (cRNA injection)
Protocol: as §1, §2

guinea pig ileum [2] = conditions: J Pharmacol Exp Ther. 1999; cited from earlier work
[3] = HEK cells, kaliotoxin-1-phage 1 out of 10^10 phage

Kv1.3, sequence (P22001 whole entry): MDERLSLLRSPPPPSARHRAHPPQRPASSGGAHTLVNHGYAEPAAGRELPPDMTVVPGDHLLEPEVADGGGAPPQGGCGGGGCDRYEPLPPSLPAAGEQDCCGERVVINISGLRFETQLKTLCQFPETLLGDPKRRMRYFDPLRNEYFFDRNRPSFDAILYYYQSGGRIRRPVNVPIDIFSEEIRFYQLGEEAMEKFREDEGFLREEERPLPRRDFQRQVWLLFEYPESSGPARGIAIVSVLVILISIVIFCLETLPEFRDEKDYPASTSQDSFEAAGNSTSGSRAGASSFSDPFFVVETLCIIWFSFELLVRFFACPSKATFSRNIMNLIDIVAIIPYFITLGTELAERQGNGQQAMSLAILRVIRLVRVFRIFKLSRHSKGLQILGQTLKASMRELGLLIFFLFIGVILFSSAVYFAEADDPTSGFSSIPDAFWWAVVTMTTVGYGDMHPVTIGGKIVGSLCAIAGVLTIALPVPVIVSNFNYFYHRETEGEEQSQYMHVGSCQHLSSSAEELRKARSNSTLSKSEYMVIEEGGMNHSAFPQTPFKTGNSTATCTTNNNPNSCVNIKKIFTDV
T2 sequence (P10499 whole entry): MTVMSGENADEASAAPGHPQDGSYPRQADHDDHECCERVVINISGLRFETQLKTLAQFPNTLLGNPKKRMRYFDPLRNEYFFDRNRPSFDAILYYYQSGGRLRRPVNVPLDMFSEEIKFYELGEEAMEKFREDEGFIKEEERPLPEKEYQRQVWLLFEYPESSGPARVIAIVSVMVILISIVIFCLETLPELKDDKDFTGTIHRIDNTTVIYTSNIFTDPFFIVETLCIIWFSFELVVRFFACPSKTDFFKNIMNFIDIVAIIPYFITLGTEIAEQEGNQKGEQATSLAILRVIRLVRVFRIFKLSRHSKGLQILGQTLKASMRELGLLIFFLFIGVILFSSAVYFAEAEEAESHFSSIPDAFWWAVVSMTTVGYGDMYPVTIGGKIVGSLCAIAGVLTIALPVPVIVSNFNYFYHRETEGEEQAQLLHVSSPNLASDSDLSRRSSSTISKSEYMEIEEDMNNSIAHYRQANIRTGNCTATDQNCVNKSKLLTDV
T1 sequence (P63142 whole entry): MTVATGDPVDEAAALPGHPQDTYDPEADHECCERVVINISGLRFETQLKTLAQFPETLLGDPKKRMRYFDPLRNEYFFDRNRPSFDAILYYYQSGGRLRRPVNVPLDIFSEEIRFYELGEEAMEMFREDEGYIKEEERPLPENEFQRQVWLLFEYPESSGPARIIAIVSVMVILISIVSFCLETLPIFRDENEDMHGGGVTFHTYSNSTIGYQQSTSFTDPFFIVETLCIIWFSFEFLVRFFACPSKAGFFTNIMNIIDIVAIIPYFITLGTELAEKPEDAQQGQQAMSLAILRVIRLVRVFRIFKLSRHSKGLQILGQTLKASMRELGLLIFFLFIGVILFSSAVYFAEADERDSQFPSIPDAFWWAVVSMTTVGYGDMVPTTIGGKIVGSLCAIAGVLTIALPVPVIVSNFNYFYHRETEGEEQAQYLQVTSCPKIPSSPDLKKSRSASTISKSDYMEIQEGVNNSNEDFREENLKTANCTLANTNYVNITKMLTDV

Structure (SMILES): CC[C@H](C)[C@H](NC(=O)[C@H](CCC(=O)O)NC(=O)[C@@H](NC(=O)CN)C(C)C)C(=O)N[C@@H](CC(N)=O)C(=O)N[C@H](C(=O)N[C@@H](CCCCN)C(=O)N[C@H]1CSSC[C@@H]2NC(=O)[C@H](CCCCN)NC(=O)CNC(=O)[C@H](Cc3ccccc3)NC(=O)[C@H](CCCNC(=N)N)NC(=O)[C@H](CCSC)NC(=O)CNC(=O)[C@H](C)NC(=O)[C@H](CC(=O)O)NC(=O)[C@H](CCCCN)NC(=O)[C@@H]3CSSC[C@@H](C(=O)N[C@H](C(=O)N4CCC[C@H]4C(=O)N[C@@H](CCCCN)C(=O)O)[C@@H](C)O)NC(=O)[C@H](Cc4c[nH]cn4)NC(=O)[C@H](CSSC[C@H](NC(=O)[C@H](CCC(N)=O)NC(=O)[C@@H]4CCCN4C(=O)[C@H](CO)NC(=O)CNC(=O)[C@H](CO)NC1=O)C(=O)N[C@@H](CC(C)C)C(=O)N[C@@H](CCCCN)C(=O)N1CCC[C@H]1C(=O)N3)NC(=O)[C@H](CCCCN)NC(=O)[C@H](CCCNC(=N)N)NC(=O)[C@H](CC(N)=O)NC(=O)[C@H](CCSC)NC2=O)C(C)C [KTX, kaliotoxin-1]
- induction of twitches in ileum strips (guinea pig ileum [1]): induced twitches
- enrichment after one round of panning (KcsA-Kv1.3): 3.6 fold
- Output (% Ligands) KcsA-Kv.13 (n = 20) (KcsA-Kv1.3; one round of panning): 100%
- enrichment of KTX, Kv1.3 transfected vs. vector cells (Kv1.3; COS cells): ~10 fold
- enrichment of KTX, Kv1.3 transfected vs. vector cells (Kv1.3; HEK cells): ~20 fold
- 2nd round (n = 20) % (Kv1.3; [3]): 0%
- 3rd round (n = 12) % (Kv1.3; [3]): 58%
- OUTPUT KTX (%) (Kv1.3; input ratio 1/99, actual 5/95 (n = 20)): 26 (n = 20) %
- OUTPUT KTX (%) (Kv1.3; input ratio 10/90, actual 0/100 (n = 10)): 22 (n = 18) %
- OUTPUT KTX (%) (Kv1.3; input ratio 10/90, actual 7/93 (n = 30)): 30 (n = 30) %
- IC50 (Kv1.2): 1400 pM
- Koff [s]^−1 (Kv1.2; rKv1.2): 0.21 ± 0.01 [s]^−1
- Kon [M · s]^−1 (Kv1.2; rKv1.2): 13 · 10^6 ± 3 · 10^6 [M · s]^−1
- IC50 (Kv1.1): 100 pM
- Koff [s]^−1 (Kv1.1; rKv1.1): 0.009 ± 0.002 [s]^−1
- Kon [M · s]^−1 (Kv1.1; rKv1.1): 30 · 10^6 ± 16 · 10^6 [M · s]^−1
- ileum contractions (guinea pig ileum [2]): contractions
